Results reported in US7517658B2, “Methods for preparing compositions using a SNORF33 receptor” (H. Lundbeck A/S, priority 1999, dated 2009).
Where “and” joins values, the source holds several entries; their conditions need not be identical. Identical values can stand only once.

Key:
hSNORF33 [1] = biological target: T1, hSNORF33 (Homo sapiens, UniProt Q96RJ0); test: Intracellular cAMP release in human SNORF33-transfected COS-7 cells; assay type: cell-based; parameters: expressed in transfected cells; host or cells: COS-7 (transient); conditions: transiently transfected COS-7 cells; read-out: Mean EC50 ± S.D.M., stimulation of human SNORF33 measured by intracellular cAMP release
T1 sequence (Q96RJ0 1-339): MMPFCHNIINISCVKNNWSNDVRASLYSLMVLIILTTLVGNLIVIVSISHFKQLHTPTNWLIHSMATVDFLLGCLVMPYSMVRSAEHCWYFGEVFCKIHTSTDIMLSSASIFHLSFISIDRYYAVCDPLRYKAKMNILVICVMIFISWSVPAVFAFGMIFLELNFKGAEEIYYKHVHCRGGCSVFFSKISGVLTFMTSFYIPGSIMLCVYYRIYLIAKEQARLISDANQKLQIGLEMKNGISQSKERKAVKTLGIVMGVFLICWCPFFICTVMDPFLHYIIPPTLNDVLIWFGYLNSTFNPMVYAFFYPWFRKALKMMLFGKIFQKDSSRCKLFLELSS
Procedure: (§1) The receptor-mediated stimulation or inhibition of cyclic AMP (cAMP) formation may be assayed in cells expressing the mammalian receptors. Cells are plated in 96-well plates or other vessels and preincubated in a buffer such as HEPES buffered saline (NaCl (150 mM), CaCl2 (1 mM), KCl (5 mM), glucose (10 mM)) supplemented with a phosphodiesterase inhibitor such as 5 mM theophylline, with or without protease inhibitor cocktail (For example, a typical inhibitor cocktail contains 2 μg/ml aprotinin, […] leupeptin, and 10 μg/ml phosphoramidon.) for 20 min at 37° C., in 5% CO2. Test compounds are added with or without […] forskolin and incubated for an additional 10 min at 37° C. The medium is then aspirated and the reaction stopped by the addition of 100 mM HCl or other methods. The plates are stored at 4° C. for 15 min, and the cAMP content in the stopping solution is measured by radioimmunoassay. Radioactivity may be quantified using a gamma counter equipped with data reduction software. Specific modifications may be performed to optimize the assay for the receptor or to alter the detection method of cAMP.
(§2) COS-7 cells were transiently transfected with rSNORF33 gene using the calcium phosphate method and plated in 96-well plates. 48 hours after transfection, cells were washed twice with Dulbecco's phosphate buffered saline (PBS) supplemented with 10 mM HEPES, 10 mM glucose, 5 mM theophylline and 10 μM pargyline and were incubated in the same buffer for 20 min at 37° C., in […] 5% CO2. Test compounds were added and cells were incubated for an additional 10 min at 37° C. The medium was then aspirated and the reaction stopped by the addition of 100 mM HCl. The plates were stored at −20° C. for 2-5 days. For cAMP measurement, plates were thawed and the cAMP content in each well was measured by radioimmunoassay cAMP Scintillation Proximity Assay (Amersham Pharmacia Biotech). Radioactivity was quantified using microbeta Trilux counter (Wallac).

mouse SNORF33 [2] = biological target: T2, mouse SNORF33 (Mus musculus, UniProt Q923Y8); test: [3H]-TYR binding (saturation and displacement) to mouse SNORF33 COS-7 membranes; conditions: mouse SNORF33, displacement of [3H]TYR; read-out: Ki (individual determinations)
T2 construct: expressed in transfected cells; host or cells: COS-7 (membranes)
T2 sequence (Q923Y8 whole entry): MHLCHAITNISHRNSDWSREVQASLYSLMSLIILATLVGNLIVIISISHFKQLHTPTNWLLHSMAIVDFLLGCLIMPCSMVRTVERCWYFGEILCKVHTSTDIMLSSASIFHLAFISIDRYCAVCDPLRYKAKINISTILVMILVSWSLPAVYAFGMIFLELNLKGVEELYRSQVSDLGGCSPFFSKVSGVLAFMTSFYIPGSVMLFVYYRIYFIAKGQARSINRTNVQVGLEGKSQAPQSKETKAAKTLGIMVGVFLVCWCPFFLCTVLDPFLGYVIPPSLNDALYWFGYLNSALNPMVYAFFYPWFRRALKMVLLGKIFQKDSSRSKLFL
Procedure: (§3) [^3H]-TYR and [^3H]-T binding assays were performed essentially as described by Mallard et al. (1992), with minor modifications. Radioligand binding assays were performed by diluting membranes prepared from cells expressing the receptor (with co-expression of the rat G-protein alpha S subunit for human SNORF33) in 25 mM Gly-Gly buffer (Sigma, pH=7.4 @ 0° C.) containing 5 mM ascorbate and 10 μM pargyline (final protein concentration in assay=100-300 μg/ml). Membranes were then incubated with either [^3H]-TYR (American Radiochemicals, specific activity 60 mCi/μmole) or [^3H]-T (Amersham, specific activity 98 mCi/μmole) in the presence or absence of competing ligands on ice for 30 min in a total volume of 250 μl in 96 well microtiter plates. The bound ligand was separated from free by filtration through GF/B filters presoaked in 0.5% polyethyleneimine (PEI), using Tomtec (Wallac) or Brandel Cell Harvester vacuum filtration device. After addition of Ready Safe (Beckman) scintillation fluid, bound radioactivity was quantitated using a Trilux (Wallac) scintillation counter (approximately 20% counting efficiency of bound counts). Data was fit to non-linear curves using GraphPad Prism.
(§4) In this manner, agonist or antagonist compounds that bind to the receptor may be identified as they inhibit the binding of the labeled ligand to the membrane protein of cells expressing the said receptor. Non-specific binding was defined as the amount of radioactivity remaining after incubation of membrane protein in the presence of 10 μM of the unlabeled amine corresponding to the radioligand used. In equilibrium saturation binding assays, membrane preparations or intact cells transfected with the receptor are incubated in the presence of increasing concentrations of the labeled compound to determine the binding affinity of the labeled ligand. The binding affinities of unlabeled compounds may be determined in equilibrium competition binding assays, using a fixed concentration of labeled compound in the presence of varying concentrations of the displacing ligands.

hSNORF33 [3] = biological target: T1, hSNORF33; test: [3H]-TYR binding (saturation and displacement) to human SNORF33 COS-7 membranes; parameters: expressed in transfected cells; host or cells: COS-7 (membranes); conditions: human SNORF33 in transfected COS-7 membranes; read-out: Mean Ki ± S.D.M., displacement of [3H]-tyramine
Procedure: as §3, §4

mouse SNORF33 [4] = biological target: T2, mouse SNORF33; test: cAMP assay at mouse SNORF33; assay type: cell-based
Procedure: as §1, §2

rSNORF33 = rSNORF33 (Rattus norvegicus, UniProt Q923Y9); test: [3H]-TYR binding (saturation and displacement) to rSNORF33-transfected COS-7 membranes; parameters: expressed in transfected cells; host or cells: COS-7 (transient); conditions: rSNORF33 in transfected COS-7 membranes; 2–4 experiments; read-out: Mean Ki ± S.D.M., displacement of [3H]-tyramine
Sequence of rSNORF33 (Q923Y9 whole entry): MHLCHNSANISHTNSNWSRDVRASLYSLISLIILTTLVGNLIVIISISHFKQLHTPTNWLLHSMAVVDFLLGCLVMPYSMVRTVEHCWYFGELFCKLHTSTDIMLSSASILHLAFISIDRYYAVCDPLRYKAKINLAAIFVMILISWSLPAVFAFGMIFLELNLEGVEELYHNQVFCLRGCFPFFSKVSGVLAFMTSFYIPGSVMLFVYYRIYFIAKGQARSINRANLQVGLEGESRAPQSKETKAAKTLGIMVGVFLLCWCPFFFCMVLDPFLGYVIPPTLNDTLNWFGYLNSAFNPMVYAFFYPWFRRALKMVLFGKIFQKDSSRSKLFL
Procedure: as §3, with “Radioligand” for “[^3H]-TYR and [^3H]-T binding assays were performed essentially as described by Mallard et al. (1992), with minor modifications. Radioligand”
as §4

## NCCc1c[nH]c2ccccc12 [Tryptamine (T), Tryptamine]
hSNORF33 [1]
  EC50: 24000 nM
Mouse SNORF33 [2]
  Ki: 140 nM
hSNORF33 [3]
  Ki: 1130 ± 372 nM
Mouse SNORF33 [4]
  Agonism in the cAMP assay: full agonists
rSNORF33
  Ki: 70 ± 14 nM

## NCCc1ccc(O)cc1 [Tyramine (TYR), Tyramine]
hSNORF33 [1]
  EC50: 214 ± 85 nM
Mouse SNORF33 [2]
  Ki: 19 nM and 20 nM
hSNORF33 [3]
  Ki: 51 ± 11 nM
Mouse SNORF33 [4]
  Agonism in the cAMP assay: full agonists
rSNORF33
  Ki: 13 ± 4 nM

## NCC(O)c1ccc(O)cc1 (stereo not shown) [Octopamine (OCT), Octopamine]
hSNORF33 [1]
  EC50: 4090 ± 95 nM
hSNORF33 [3]
  Ki: 417 ± 285 nM
rSNORF33
  Ki: 310 ± 71 nM
